Here are results for one sequence from patent US9303069B2, “Peptides for treating cancer” (University of Mississippi Medical Center, priority 2014, dated 2016).

Ends that are not written are not given here.

The subject of one experiment is HOSE cells. The format is cell-based, human. Conditions: 48 h. As for the experimental part: (§1) Thus, a peptide (hereafter IRIS peptide) composed of a cell/nucleus penetrating signal (FIG. 26) fused to BRCA1-IRIS intron 11 (FIG. 26) was synthesized. Equal numbers of HOSE, HOSE/IRIS, SKOV3, OVCAR3, OVCAR420 and OV-90 cells were grown in the presence of increasing concentrations of IRIS peptide for 48 hours.
(§2) Cell viability measurement. Cell viability under different experimental conditions was determined using the MTS assay […]. Briefly, SKOV3, OVACAR3, HOSE and HOSE/IRIS cells (2.5×10^4 cells per well) were seeded in 96 well plates and incubated overnight at 37° C. in 10% humidified CO2 atmosphere in varying concentrations of IRIS peptide, or inhibitors of ErbB2 (CP-724714), EGFR (Erlotinib), TrkB (K252a), JNK (SP600125), p38 (SB203580), ERK (PD98059) and PI3′K/AKT (LY294002) inhibitors for 24 hours at 37° C. Cell Titer 96® Aqueous (Promega, Madison, Wis., USA) was used to measure viability following manufactures instructions. Cell viability (%) was expressed as a ratio to control cells×100. Growth inhibition was also determined by manually counting cells in five different microscopic fields. Change in cell numbers (fold) was expressed as a ratio to control cells×100. All experiments were done in at least triplicates, three different times. * is p≦0.05, ** is p≦0.001 and *** is p≦0.0001.

A further experiment deals with HOSE/IRIS cells. Format: cell-based, human. The note with it: 48 h. As for the experimental part:
as §1, §2

For a further experiment, the system named is OV-90 cells. Format: cell-based, human. The note with it: 48 h. As for the experimental part: as §1, §2
For another experiment, the system named is OVCAR3 cells. The format is cell-based, human. Conditions: 48 h. As for the experimental part:
as §1, §2

Another experiment deals with OVCAR420 cells. Format: cell-based, human. The note with it: 48 h. As for the experimental part:
as §1, §2

A further experiment has as its system AKT, ERK, MDM2 and Skp2. In words: Signalling proteins in SKOV3 and OVCAR3 cells (Western). Format: cell-based, human. An excerpt:
Finally, to further dissect the IRIS-induced cisplatin resistance pathway, PI3′K/AKT (using […]) and ERK (using PD98059) were inactivated and compared to IRIS peptide in two aggressive ovarian cancer cell lines. […] Phosphorylation of cytoplasmic or nuclear FOXO3a by p-AKT and/or p-ERK promotes MDM2 binding and priming ubiquitylation, which is then followed by Skp2 branching ubiquitylation and FOXO3a degradation (Huang and Tindall, 2011). FOXO was less phosphorylated in LY, PD as well as IRIS-silenced/inactivated SKOV3 or OVCAR3 cells (FIG. 34). […] Consistently, in BRCA1-IRIS silenced/inactivated cells accumulation of unphosphorylated/stabilized FOXO3a was detected. In contrast, FOXO3a was still decreased to different degrees in LY or PD treated cells (FIG. 34).

For another experiment, the system named is SKOV3 cells. In words: Invasion assay, matrigel-coated Boyden chambers, SKOV3. The note with it: 72 hours, IRIS peptide 5 μM, versus control-treated cells. The format is cell-based, human. As for the experimental part: Invasion assay: Control (transfected with siLuc or treated with scrambled peptide, 5 μM) or shIRIS expressing SKOV3 cells were layered on top of matrigel-coated Boyden chambers. Some cultures were treated with 5 μM IRIS peptide. Seventy-two hours later, cells that invaded the matrigel and migrated to the lower side of the chambers were stained with Crystal Violet, counted and photographed. […] Similarly, BRCA1-IRIS silenced cells also lost their invasion ability by ˜75 fold (compare C to A in FIG. 36 and FIG. 35).
Cell Invasion assay. Growth reduced BD Matrigel™ invasion chamber (24 well plate, 8.0 μm, BD BioCoat™) was used to study the invasion ability of control and shBRCA1-IRIS cells. Cells (5×10^3) in complete medium (500 μl) were seeded on the upper compartment, and the lower compartment was filled with 750 μl of complete growth medium. Cells were incubated for 72 hours. The medium from the upper chamber was removed, and the cells on the upper surface of the membrane were removed carefully with a cotton swab. Invasive cells in lower side of the membrane were stained with crystal violet dye for 10 minutes. After staining, the upper chamber was rinse thoroughly with water until the water runs clear. Stained and dry chambers were visualized with microscope and photographed.

Another experiment deals with SKOV3 tumors. In words: In vivo efficacy on established SKOV3 tumors. Set-up: species or system mice. Conditions: day 16; cisplatin 5 mg/kg i.p., IRIS peptide 10 mg/kg i.t., every third day, four times. As for the experimental part:
Further, to determine whether IRIS peptide could have any efficacy in vivo and/or whether it sensitizes ovarian tumors to low, clinically relevant concentrations of cisplatin, four sets of nude mice (n=6 each) were subcutaneously injected with SKOV3 cells. Ten days later, when tumors were ˜250 mm^3 in volume, one group was treated with controls (i.e. DMSO delivered i.p. and scrambled peptide delivered directly into the tumors, i.t.), a second group was treated with cisplatin (5 mg/kg, delivered i.p.), a third group was treated with IRIS peptide (10 mg/kg, injected i.t.), and a fourth group was treated with both. Treatments were delivered every third day for a total of four times. For the next 16 days, tumors were measured daily with a caliper. Mice were then sacrificed, and their tumors or their remnants were taken.
Efficacy of BRCA1-IRIS inhibitory peptide, in vivo. Six to eight week old female athymic SCID mice were injected subcutaneously with 2.5×10^6 SKOV3 cells in the flank region. Their respective tumor growth was measured with a caliper. When the tumor volume reached 250 mm^3, mice were randomly grouped into four groups. One group (control) was treated with scrambled peptide (10 mg/kg) and DMSO. A second was treated with BRCA1-IRIS inhibitory peptide (10 mg/kg, body weight). […] Change in tumor volume was measured to monitor the efficacy of the treatment. […]

The next experiment deals with HME/IRIS cells. The note with it: 48 h.

Method for HME/IRIS cells: All cell lines were exposed to increasing concentrations of paclitaxel and BRCA1-IRIS expression, and cells' viability was then measured.
Cell viability measurement. Cell viability under different experimental conditions was determined using the MTS assay. Briefly, cells (2.5×10^4 cells per well) were seeded in 96-well plates and incubated overnight at 37° C. in 10% humidified CO2 atmosphere. The next day they were incubated with varying concentration of peptide, or inhibitors for 24 hours at 37° C. Cell viability was determined using cell Titer 96® Aqueous (Promega, Madison, Wis., USA) following manufacturer's instructions. Cell viability (%) was expressed as a ratio of treated cells to control cells×100. […] Each experiment was done in triplicate, repeated three separate times.

For the sequence “RRIRPRPPRLPRPRPRPLPFPRPGIGTRFLCLPQSIYRSELNVYAFGEHILQISKYS [IRIS peptide]”, the concentration for half-maximal inhibition (IC50) was about 1 µM in the experiment on HOSE cells; about 10 µM with HOSE/IRIS cells; about 5 µM with OV-90 cells; about 10 µM in the experiment on OVCAR3 cells; about 1 µM with OVCAR420 cells; about 5 µM in the experiment with HME/IRIS cells. Besides, the “AKT and ERK expression and activation” value with AKT, ERK, MDM2 and Skp2 was “decreased expression and inactivated AKT and ERK”. Also, the “decreased ability to invade” value in the experiment with SKOV3 cells is about 100 fold. Moreover, the “reduction in tumor size” value in the experiment with SKOV3 tumors is reported as about 50%.

One may read the IC50 as the midpoint of a concentration-inhibition curve. Lower therefore signals greater potency.
